Data taken from the supplement of paper PMC10307832.

Legend:
Assay in all cases: relative viability (nuclei count vs DMSO), 5 days (fraction); higher = more cells survive
KN-93 = compound: CN(C/C=C/C1=CC=C(C=C1)Cl)CC2=CC=CC=C2N(CCO)S(=O)(=O)C3=CC=C(C=C3)OC [KN-93]
Method in brief: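 Five library-drug doses, separated by factors of √10, were pinned into 1536-well plates holding lung cancer cell lines after an overnight stay at 37 °C. Cells were fixed, permeabilised and Hoechst-stained in one step after 5 days without medium change, then imaged at 4×. Viability compares treated-well with vehicle-well nuclei, counted in MetaXpress, as a median across plates. Passing plates had control CV below 25% and at least one doubling.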

KN-93 + Trametinib = compound: CN(C/C=C/C1=CC=C(C=C1)Cl)CC2=CC=CC=C2N(CCO)S(=O)(=O)C3=CC=C(C=C3)OC [KN-93] + CC(=O)Nc1cccc(-n2c(=O)n(C3CC3)c(=O)c3c(Nc4ccc(I)cc4F)n(C)c(=O)c(C)c32)c1 [Trametinib] (partner 0.02 µM)
Method in brief: (§1)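 Lung cancer cell lines were pin-tool dosed in 1536-well plates on the day after seeding, with either a lone drug or a fixed anchor-drug dose plus five library-drug doses (not always all listed) in √10 steps. Nuclei were counted on 4× images after 5 days. Relative viability is the ratio of treated-well to vehicle-well nuclei counts, with each value a median of duplicate plates.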

KN-93 + Palbociclib = compound: CN(C/C=C/C1=CC=C(C=C1)Cl)CC2=CC=CC=C2N(CCO)S(=O)(=O)C3=CC=C(C=C3)OC [KN-93] + CC(=O)c1c(C)c2cnc(Nc3ccc(N4CCNCC4)cn3)nc2n(C2CCCC2)c1=O [Palbociclib] (partner 0.5 µM)
Method in brief: as §1

KN-93 + OSI-027 = compound: CN(C/C=C/C1=CC=C(C=C1)Cl)CC2=CC=CC=C2N(CCO)S(=O)(=O)C3=CC=C(C=C3)OC [KN-93] + COc1cccc2cc(-c3nc([C@H]4CC[C@H](C(=O)O)CC4)n4ncnc(N)c34)[nH]c12 [OSI-027] (partner 0.5 µM)
Method in brief: as §1

KN-93 + Tozasertib = compound: CN(C/C=C/C1=CC=C(C=C1)Cl)CC2=CC=CC=C2N(CCO)S(=O)(=O)C3=CC=C(C=C3)OC [KN-93] + Cc1cc(Nc2cc(N3CCN(C)CC3)nc(Sc3ccc(NC(=O)C4CC4)cc3)n2)n[nH]1 [Tozasertib] (partner 0.1 µM)
Method in brief: as §1

KN-93 + AZD7762 = compound: CN(C/C=C/C1=CC=C(C=C1)Cl)CC2=CC=CC=C2N(CCO)S(=O)(=O)C3=CC=C(C=C3)OC [KN-93] + NC(=O)Nc1cc(-c2cccc(F)c2)sc1C(=O)N[C@H]1CCCNC1 [AZD7762] (partner 0.2 µM)
Method in brief: as §1

KN-93 + Pemetrexed = compound: CN(C/C=C/C1=CC=C(C=C1)Cl)CC2=CC=CC=C2N(CCO)S(=O)(=O)C3=CC=C(C=C3)OC [KN-93] + Nc1nc2[nH]cc(CCc3ccc(C(=O)N[C@@H](CCC(=O)O)C(=O)O)cc3)c2c(=O)[nH]1 [Pemetrexed] (partner 0.2 µM)
Method in brief: as §1

KN-93 + Decitabine = compound: CN(C/C=C/C1=CC=C(C=C1)Cl)CC2=CC=CC=C2N(CCO)S(=O)(=O)C3=CC=C(C=C3)OC [KN-93] + Nc1ncn([C@H]2C[C@H](O)[C@@H](CO)O2)c(=O)n1 [Decitabine] (partner 2 µM)
Method in brief: as §1

KN-93 + Vorinostat = compound: CN(C/C=C/C1=CC=C(C=C1)Cl)CC2=CC=CC=C2N(CCO)S(=O)(=O)C3=CC=C(C=C3)OC [KN-93] + O=C(CCCCCCC(=O)Nc1ccccc1)NO [Vorinostat] (partner 1 µM)
Method in brief: as §1

KN-93 + Olaparib = compound: CN(C/C=C/C1=CC=C(C=C1)Cl)CC2=CC=CC=C2N(CCO)S(=O)(=O)C3=CC=C(C=C3)OC [KN-93] + O=C(c1cc(Cc2n[nH]c(=O)c3ccccc23)ccc1F)N1CCN(C(=O)C2CC2)CC1 [Olaparib] (partner 8 µM)
Method in brief: as §1

## NCI-H1648
KN-93; 0.08 µM
  relative viability: 0.704
KN-93; 0.253 µM
  relative viability: 0.792
KN-93; 2.53 µM
  relative viability: 0.968
KN-93; 8 µM
  relative viability: 0.526
KN-93 + Trametinib; first compound 0.08 µM
  relative viability: 0.403
KN-93 + Trametinib; first compound 0.253 µM
  relative viability: 0.445
KN-93 + Trametinib; first compound 2.53 µM
  relative viability: 0.381
KN-93 + Trametinib; first compound 8 µM
  relative viability: 0.407
KN-93 + Palbociclib; first compound 0.08 µM
  relative viability: 0.251
KN-93 + Palbociclib; first compound 0.253 µM
  relative viability: 0.259
KN-93 + Palbociclib; first compound 2.53 µM
  relative viability: 0.295
KN-93 + Palbociclib; first compound 8 µM
  relative viability: 0.291
KN-93 + OSI-027; first compound 0.08 µM
  relative viability: 0.263
KN-93 + OSI-027; first compound 0.253 µM
  relative viability: 0.254
KN-93 + OSI-027; first compound 2.53 µM
  relative viability: 0.229
KN-93 + OSI-027; first compound 8 µM
  relative viability: 0.202
KN-93 + Tozasertib; first compound 0.08 µM
  relative viability: 0.426
KN-93 + Tozasertib; first compound 0.253 µM
  relative viability: 0.378
KN-93 + Tozasertib; first compound 2.53 µM
  relative viability: 0.389
KN-93 + Tozasertib; first compound 8 µM
  relative viability: 0.331
KN-93 + AZD7762; first compound 0.08 µM
  relative viability: 0.647
KN-93 + AZD7762; first compound 0.253 µM
  relative viability: 0.727
KN-93 + AZD7762; first compound 2.53 µM
  relative viability: 0.82
KN-93 + AZD7762; first compound 8 µM
  relative viability: 0.663
KN-93 + Pemetrexed; first compound 0.08 µM
  relative viability: 0.717
KN-93 + Pemetrexed; first compound 0.253 µM
  relative viability: 0.874
KN-93 + Pemetrexed; first compound 2.53 µM
  relative viability: 0.788
KN-93 + Pemetrexed; first compound 8 µM
  relative viability: 0.716
KN-93 + Decitabine; first compound 0.08 µM
  relative viability: 0.459
KN-93 + Decitabine; first compound 0.253 µM
  relative viability: 0.45
KN-93 + Decitabine; first compound 2.53 µM
  relative viability: 0.557
KN-93 + Decitabine; first compound 8 µM
  relative viability: 0.34
KN-93 + Vorinostat; first compound 0.08 µM
  relative viability: 0.485
KN-93 + Vorinostat; first compound 0.253 µM
  relative viability: 0.423
KN-93 + Vorinostat; first compound 2.53 µM
  relative viability: 0.322
KN-93 + Vorinostat; first compound 8 µM
  relative viability: 0.807
KN-93 + Olaparib; first compound 0.08 µM
  relative viability: 0.56
KN-93 + Olaparib; first compound 0.253 µM
  relative viability: 0.724
KN-93 + Olaparib; first compound 2.53 µM
  relative viability: 0.568
KN-93 + Olaparib; first compound 8 µM
  relative viability: 0.711
